How the values were obtained:
Assay in all cases: Caliper, Mobility shift assay off-chip
MERTK (human) = MERTK (human) (UniProt Q12866)
ABL1 (human) = ABL1 (human) (UniProt P00519)
AXL (human) = AXL (human) (UniProt P30530)
BRSK1 (human) = BRSK1 (human) (UniProt Q8TDC3)
CAMK2B (human) = CAMK2B (human) (UniProt Q13554)
CDK2 CCNE1 (human) = CDK2 CCNE1 (human) (UniProt P24864+P24941)
[1] = test system: CHEK2 (human), O96017 [R145W]
CHUK (human) = CHUK (human) (UniProt O15111)
CSNK1G2 (human) = CSNK1G2 (human) (UniProt P78368)
Sequence of CSNK1G2 (human) (P78368 whole entry, looked up): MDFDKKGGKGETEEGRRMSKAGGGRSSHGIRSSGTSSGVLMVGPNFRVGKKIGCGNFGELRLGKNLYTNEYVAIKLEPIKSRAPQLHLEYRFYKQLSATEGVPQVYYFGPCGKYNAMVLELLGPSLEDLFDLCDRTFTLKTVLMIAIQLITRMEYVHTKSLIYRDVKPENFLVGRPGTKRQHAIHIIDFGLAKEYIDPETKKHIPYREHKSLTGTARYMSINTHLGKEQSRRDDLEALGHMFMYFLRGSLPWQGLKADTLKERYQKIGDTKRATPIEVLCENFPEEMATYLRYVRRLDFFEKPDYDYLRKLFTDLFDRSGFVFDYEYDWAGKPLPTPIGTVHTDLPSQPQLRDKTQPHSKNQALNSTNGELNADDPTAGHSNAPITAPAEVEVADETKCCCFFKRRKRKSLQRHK

CSNK2A2 (human) = CSNK2A2 (human) (UniProt P19784)
DAPK1 (human) = DAPK1 (human) (UniProt P53355)
DYRK2 (human) = DYRK2 (human) (UniProt Q92630)
EPHA5 (human) = EPHA5 (human) (UniProt P54756)
FER (human) = FER (human) (UniProt P16591)
[2] = test system: FGFR2 (human), P21802 [N549H]
FGR (human) = FGR (human) (UniProt P09769)
Sequence of FGR (human) (P09769 whole entry, looked up): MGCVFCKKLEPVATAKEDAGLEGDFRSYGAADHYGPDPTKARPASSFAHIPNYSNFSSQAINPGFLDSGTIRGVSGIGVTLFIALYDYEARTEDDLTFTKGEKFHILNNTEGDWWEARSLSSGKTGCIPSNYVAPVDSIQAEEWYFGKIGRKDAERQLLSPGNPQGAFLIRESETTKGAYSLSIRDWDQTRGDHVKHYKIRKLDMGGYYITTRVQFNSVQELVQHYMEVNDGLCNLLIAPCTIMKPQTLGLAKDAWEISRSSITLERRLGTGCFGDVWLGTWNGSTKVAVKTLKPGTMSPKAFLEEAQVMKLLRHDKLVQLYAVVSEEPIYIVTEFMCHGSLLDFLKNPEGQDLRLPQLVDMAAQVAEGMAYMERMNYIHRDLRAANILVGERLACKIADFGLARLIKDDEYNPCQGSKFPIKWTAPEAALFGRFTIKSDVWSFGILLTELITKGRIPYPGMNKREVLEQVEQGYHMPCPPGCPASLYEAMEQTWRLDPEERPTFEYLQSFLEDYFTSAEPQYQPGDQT

GRK5 (human) = GRK5 (human) (UniProt P34947)
HIPK2 (human) = HIPK2 (human) (UniProt Q9H2X6)
ITK (human) = ITK (human) (UniProt Q08881)
[3] = test system: KIT (human), P10721 [D816V]
LIMK1 (human) = LIMK1 (human) (UniProt P53667)
LYN (human) = LYN (human) (UniProt P07948)
MAP2K1 (human) = MAP2K1 (human) (UniProt Q02750)
MAPKAPK3 (human) = MAPKAPK3 (human) (UniProt Q16644)
MKNK2 (human) = MKNK2 (human) (UniProt Q9HBH9)
NEK3 (human) = NEK3 (human) (UniProt P51956)
Sequence of NEK3 (human) (P51956 whole entry, looked up): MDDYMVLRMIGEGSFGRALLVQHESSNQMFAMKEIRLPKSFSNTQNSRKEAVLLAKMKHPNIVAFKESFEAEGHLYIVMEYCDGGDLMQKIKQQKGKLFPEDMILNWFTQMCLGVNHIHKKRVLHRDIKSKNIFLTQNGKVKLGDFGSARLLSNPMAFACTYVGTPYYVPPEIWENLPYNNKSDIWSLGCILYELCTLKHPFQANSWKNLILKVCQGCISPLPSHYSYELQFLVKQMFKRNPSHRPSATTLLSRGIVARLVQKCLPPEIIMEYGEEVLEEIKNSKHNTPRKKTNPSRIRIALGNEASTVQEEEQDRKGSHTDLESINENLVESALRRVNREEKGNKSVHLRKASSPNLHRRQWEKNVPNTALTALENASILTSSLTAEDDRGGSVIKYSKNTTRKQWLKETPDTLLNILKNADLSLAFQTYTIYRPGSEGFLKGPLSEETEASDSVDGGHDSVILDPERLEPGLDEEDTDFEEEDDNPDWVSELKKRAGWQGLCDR

NUAK1 (human) = NUAK1 (human) (UniProt O60285)
PDGFRA (human) = PDGFRA (human) (UniProt P16234)
[4] = test system: PDGFRA (human), P16234 [D842V]
PRKACA (human) = PRKACA (human) (UniProt P17612)
PRKG1 (human) = PRKG1 (human) (UniProt Q13976)
PTK2B (human) = PTK2B (human) (UniProt Q14289)
Sequence of PTK2B (human) (Q14289 whole entry, looked up): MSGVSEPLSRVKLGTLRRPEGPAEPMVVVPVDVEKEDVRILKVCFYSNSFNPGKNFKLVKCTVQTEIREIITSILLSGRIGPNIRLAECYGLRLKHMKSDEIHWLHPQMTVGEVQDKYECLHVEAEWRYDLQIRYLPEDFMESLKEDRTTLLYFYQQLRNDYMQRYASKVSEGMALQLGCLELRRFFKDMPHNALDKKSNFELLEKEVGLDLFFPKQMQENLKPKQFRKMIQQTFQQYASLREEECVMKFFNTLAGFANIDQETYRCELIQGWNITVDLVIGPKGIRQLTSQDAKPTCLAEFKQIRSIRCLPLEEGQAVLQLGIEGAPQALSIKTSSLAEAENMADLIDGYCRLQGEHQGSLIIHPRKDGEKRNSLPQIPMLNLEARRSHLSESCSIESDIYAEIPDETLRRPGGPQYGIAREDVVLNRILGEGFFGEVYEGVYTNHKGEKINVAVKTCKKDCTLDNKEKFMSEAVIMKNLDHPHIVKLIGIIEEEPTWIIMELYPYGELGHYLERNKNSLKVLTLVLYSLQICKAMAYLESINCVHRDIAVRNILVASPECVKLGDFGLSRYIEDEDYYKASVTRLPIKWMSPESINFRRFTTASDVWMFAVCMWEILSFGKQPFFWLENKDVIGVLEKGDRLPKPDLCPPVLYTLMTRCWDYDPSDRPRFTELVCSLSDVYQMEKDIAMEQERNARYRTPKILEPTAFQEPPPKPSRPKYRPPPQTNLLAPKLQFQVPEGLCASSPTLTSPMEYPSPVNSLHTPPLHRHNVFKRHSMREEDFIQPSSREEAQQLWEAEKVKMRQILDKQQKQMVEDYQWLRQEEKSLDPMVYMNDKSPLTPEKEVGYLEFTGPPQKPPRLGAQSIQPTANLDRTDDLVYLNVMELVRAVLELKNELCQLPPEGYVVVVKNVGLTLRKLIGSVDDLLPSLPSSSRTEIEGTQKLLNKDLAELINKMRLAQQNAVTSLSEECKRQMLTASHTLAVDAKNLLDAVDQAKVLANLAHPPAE

RPS6KA2 KD1 KD2 (human) = RPS6KA2 KD1 KD2 (human) (UniProt Q15349)
Sequence of RPS6KA2 KD1 KD2 (human) (Q15349 whole entry, looked up): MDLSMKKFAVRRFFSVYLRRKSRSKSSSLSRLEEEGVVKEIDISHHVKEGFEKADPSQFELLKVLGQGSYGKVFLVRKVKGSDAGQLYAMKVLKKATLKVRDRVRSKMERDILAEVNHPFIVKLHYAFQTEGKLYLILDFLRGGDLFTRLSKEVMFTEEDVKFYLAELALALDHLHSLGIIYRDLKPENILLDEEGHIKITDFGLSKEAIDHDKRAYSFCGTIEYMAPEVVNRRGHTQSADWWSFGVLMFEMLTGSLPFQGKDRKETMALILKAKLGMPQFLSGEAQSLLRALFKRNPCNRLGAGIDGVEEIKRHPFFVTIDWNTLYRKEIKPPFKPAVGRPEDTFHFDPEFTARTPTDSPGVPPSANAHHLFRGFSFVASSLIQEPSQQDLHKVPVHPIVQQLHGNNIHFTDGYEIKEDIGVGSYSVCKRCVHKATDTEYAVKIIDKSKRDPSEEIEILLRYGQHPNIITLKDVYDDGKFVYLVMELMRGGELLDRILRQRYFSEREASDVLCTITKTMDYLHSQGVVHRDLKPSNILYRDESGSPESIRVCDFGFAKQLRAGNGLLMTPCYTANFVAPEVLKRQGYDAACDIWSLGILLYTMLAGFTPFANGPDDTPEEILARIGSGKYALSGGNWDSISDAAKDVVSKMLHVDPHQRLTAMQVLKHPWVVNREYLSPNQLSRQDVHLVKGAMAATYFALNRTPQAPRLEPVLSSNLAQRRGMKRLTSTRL

RPS6KA4 KD1 KD2 (human) = RPS6KA4 KD1 KD2 (human) (UniProt O75676)
STK10 (human) = STK10 (human) (UniProt O94804)
STK3 (human) = STK3 (human) (UniProt Q13188)
TAOK2 (human) = TAOK2 (human) (UniProt Q9UL54)
TBK1 (human) = TBK1 (human) (UniProt Q9UHD2)
TSSK2 (human) = TSSK2 (human) (UniProt Q96PF2)
VRK2 (human) = VRK2 (human) (UniProt Q86Y07)
WNK2 (human) = WNK2 (human) (UniProt Q9Y3S1)

Sequence of MERTK (human) (Q12866 whole entry, looked up): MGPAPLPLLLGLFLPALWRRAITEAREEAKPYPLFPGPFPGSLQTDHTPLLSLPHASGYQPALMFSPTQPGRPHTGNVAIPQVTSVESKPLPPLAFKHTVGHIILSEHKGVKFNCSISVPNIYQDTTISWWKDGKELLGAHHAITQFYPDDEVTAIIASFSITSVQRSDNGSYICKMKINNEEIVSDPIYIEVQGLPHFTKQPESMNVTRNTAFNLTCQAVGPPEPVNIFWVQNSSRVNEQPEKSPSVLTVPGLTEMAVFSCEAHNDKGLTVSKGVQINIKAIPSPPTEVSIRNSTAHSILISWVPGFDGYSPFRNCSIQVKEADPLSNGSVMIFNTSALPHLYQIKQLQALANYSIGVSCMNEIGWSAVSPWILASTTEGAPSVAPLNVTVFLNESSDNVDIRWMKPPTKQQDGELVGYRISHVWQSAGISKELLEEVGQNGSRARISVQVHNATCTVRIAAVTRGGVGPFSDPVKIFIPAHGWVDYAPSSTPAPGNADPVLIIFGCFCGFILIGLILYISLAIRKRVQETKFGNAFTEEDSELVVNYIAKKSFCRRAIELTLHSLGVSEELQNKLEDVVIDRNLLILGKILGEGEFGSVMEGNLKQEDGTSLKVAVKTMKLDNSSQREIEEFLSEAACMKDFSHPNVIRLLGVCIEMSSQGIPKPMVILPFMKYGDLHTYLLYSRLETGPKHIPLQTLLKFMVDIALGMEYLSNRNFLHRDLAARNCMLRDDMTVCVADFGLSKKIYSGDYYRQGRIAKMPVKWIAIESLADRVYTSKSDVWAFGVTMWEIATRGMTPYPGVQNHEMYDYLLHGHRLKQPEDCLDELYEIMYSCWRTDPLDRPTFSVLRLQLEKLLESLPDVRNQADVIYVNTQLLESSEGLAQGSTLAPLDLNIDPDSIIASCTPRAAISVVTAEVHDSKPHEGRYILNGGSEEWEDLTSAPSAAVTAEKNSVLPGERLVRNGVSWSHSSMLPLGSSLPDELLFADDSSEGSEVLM
Sequence of CAMK2B (human) (Q13554 whole entry, looked up): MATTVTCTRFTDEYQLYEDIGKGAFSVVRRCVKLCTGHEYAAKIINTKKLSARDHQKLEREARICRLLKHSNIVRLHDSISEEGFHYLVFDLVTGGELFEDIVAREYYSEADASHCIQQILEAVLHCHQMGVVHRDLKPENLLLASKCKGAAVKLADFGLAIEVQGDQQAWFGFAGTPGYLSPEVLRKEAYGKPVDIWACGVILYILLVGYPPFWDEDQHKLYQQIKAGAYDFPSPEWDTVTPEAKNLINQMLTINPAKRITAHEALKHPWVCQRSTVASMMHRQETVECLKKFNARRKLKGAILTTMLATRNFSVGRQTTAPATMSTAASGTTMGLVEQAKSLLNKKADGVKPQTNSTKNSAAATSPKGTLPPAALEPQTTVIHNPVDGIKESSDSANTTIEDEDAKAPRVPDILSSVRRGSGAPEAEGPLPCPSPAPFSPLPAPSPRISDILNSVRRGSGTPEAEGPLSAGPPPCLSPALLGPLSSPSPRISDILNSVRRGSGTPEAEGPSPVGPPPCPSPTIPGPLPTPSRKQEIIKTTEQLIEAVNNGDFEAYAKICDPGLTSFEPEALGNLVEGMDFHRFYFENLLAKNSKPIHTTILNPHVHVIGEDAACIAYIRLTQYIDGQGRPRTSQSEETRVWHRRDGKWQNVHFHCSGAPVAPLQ

CC(C)(C)c1nc2c3ccc(F)cc3c3c(=O)[nH]ccc3c2[nH]1
residual activity (MERTK (human); compound 10.0 µM): 28%

COc1ccc(C#Cc2ccc3ncc4ncn(-c5ccc(CCN)cc5)c4c3c2)cc1
residual activity (ABL1 (human); compound 10.0 µM): 73%
residual activity (AXL (human); compound 10.0 µM): 3%
residual activity (BRSK1 (human); compound 10.0 µM): 36%
residual activity (CAMK2B (human); compound 10.0 µM): 6%
residual activity (CDK2 CCNE1 (human); compound 10.0 µM): 99%
residual activity ([1]; compound 10.0 µM): 1%
residual activity (CHUK (human); compound 10.0 µM): 36%
residual activity (CSNK1G2 (human); compound 10.0 µM): 39%
residual activity (CSNK2A2 (human); compound 10.0 µM): 90%
residual activity (DAPK1 (human); compound 10.0 µM): 50%
residual activity (DYRK2 (human); compound 10.0 µM): 86%
residual activity (EPHA5 (human); compound 10.0 µM): 90%
residual activity (FER (human); compound 10.0 µM): 14%
residual activity ([2]; compound 10.0 µM): 11%
residual activity (FGR (human); compound 10.0 µM): 36%
residual activity (GRK5 (human); compound 10.0 µM): 114%
residual activity (HIPK2 (human); compound 10.0 µM): 63%
residual activity (ITK (human); compound 10.0 µM): 78%
residual activity ([3]; compound 10.0 µM): 92%
residual activity (LIMK1 (human); compound 10.0 µM): 38%
residual activity (LYN (human); compound 10.0 µM): 56%
residual activity (MAP2K1 (human); compound 10.0 µM): 43%
residual activity (MAPKAPK3 (human); compound 10.0 µM): 84%
residual activity (MERTK (human); compound 10.0 µM): 3%
residual activity (MKNK2 (human); compound 10.0 µM): 120%
residual activity (NEK3 (human); compound 10.0 µM): 88%
residual activity (NUAK1 (human); compound 10.0 µM): 66%
residual activity (PDGFRA (human); compound 10.0 µM): 79%
residual activity ([4]; compound 10.0 µM): 5%
residual activity (PRKACA (human); compound 10.0 µM): 51%
residual activity (PRKG1 (human); compound 10.0 µM): 29%
residual activity (PTK2B (human); compound 10.0 µM): 47%
residual activity (RPS6KA2 KD1 KD2 (human); compound 10.0 µM): 8%
residual activity (RPS6KA4 KD1 KD2 (human); compound 10.0 µM): 8%
residual activity (STK10 (human); compound 10.0 µM): 18%
residual activity (STK3 (human); compound 10.0 µM): 104%
residual activity (TAOK2 (human); compound 10.0 µM): 81%
residual activity (TBK1 (human); compound 10.0 µM): 47%
residual activity (TSSK2 (human); compound 10.0 µM): 72%
residual activity (VRK2 (human); compound 10.0 µM): 115%
residual activity (WNK2 (human); compound 10.0 µM): 65%

C[C@@H](Nc1nc2c(C#CC3CC3)c[nH]c(=O)c2c2cc(-c3cn[nH]c3)ccc12)C(C)(C)C
residual activity (ABL1 (human); compound 1.0 µM): 71%
residual activity (AXL (human); compound 1.0 µM): 18%
residual activity (BRSK1 (human); compound 1.0 µM): 29%
residual activity (CAMK2B (human); compound 1.0 µM): 78%
residual activity (CDK2 CCNE1 (human); compound 1.0 µM): 116%
residual activity ([1]; compound 1.0 µM): 12%
residual activity (CHUK (human); compound 1.0 µM): 102%
residual activity (CSNK1G2 (human); compound 1.0 µM): 101%
residual activity (CSNK2A2 (human); compound 1.0 µM): 112%
residual activity (DAPK1 (human); compound 1.0 µM): 82%
residual activity (DYRK2 (human); compound 1.0 µM): 102%
residual activity (EPHA5 (human); compound 1.0 µM): 109%
residual activity (FER (human); compound 1.0 µM): 6%
residual activity ([2]; compound 1.0 µM): 23%
residual activity (FGR (human); compound 1.0 µM): 57%
residual activity (GRK5 (human); compound 1.0 µM): 122%
residual activity (HIPK2 (human); compound 1.0 µM): 104%
residual activity (ITK (human); compound 1.0 µM): 113%
residual activity ([3]; compound 1.0 µM): 93%
residual activity (LIMK1 (human); compound 1.0 µM): 67%
residual activity (LYN (human); compound 1.0 µM): 72%
residual activity (MAP2K1 (human); compound 1.0 µM): 96%
residual activity (MAPKAPK3 (human); compound 1.0 µM): 95%
residual activity (MERTK (human); compound 1.0 µM): 8%
residual activity (MKNK2 (human); compound 1.0 µM): 30%
residual activity (NEK3 (human); compound 1.0 µM): 104%
residual activity (NUAK1 (human); compound 1.0 µM): 11%
residual activity (PDGFRA (human); compound 1.0 µM): 74%
residual activity ([4]; compound 1.0 µM): 1%
residual activity (PRKACA (human); compound 1.0 µM): 106%
residual activity (PRKG1 (human); compound 1.0 µM): 97%
residual activity (PTK2B (human); compound 1.0 µM): 59%
residual activity (RPS6KA2 KD1 KD2 (human); compound 1.0 µM): 7%
residual activity (RPS6KA4 KD1 KD2 (human); compound 1.0 µM): 61%
residual activity (STK10 (human); compound 1.0 µM): 25%
residual activity (STK3 (human); compound 1.0 µM): 60%
residual activity (TAOK2 (human); compound 1.0 µM): 101%
residual activity (TBK1 (human); compound 1.0 µM): 78%
residual activity (TSSK2 (human); compound 1.0 µM): 106%
residual activity (VRK2 (human); compound 1.0 µM): 111%
residual activity (WNK2 (human); compound 1.0 µM): 98%
